Results as given in ChEMBL document CHEMBL4043238, “Discovery of N-substituted 7-azaindoles as Pan-PIM kinase inhibitors - Lead series identification - Part II” (Bioorg Med Chem Lett, 2017).
Values after ≈ are worked out from the molar mass of the structure shown.

How the values were obtained:
[1] = target: T1, Serine/threonine-protein kinase pim-1 (Homo sapiens, UniProt P11309); assay: Inhibition of PIM1 (unknown origin) assessed as reduction in BAD phosphorylation at Ser112 residues by TR-FRET assay
[2] = target: Serine/threonine-protein kinase pim-2 (Homo sapiens, UniProt Q9P1W9); assay: Inhibition of PIM2 (unknown origin) assessed as reduction in BAD phosphorylation at Ser112 residues by TR-FRET assay
[3] = target: Serine/threonine-protein kinase pim-3 (Homo sapiens, UniProt Q86V86); assay: Inhibition of PIM3 (unknown origin) assessed as reduction in BAD phosphorylation at Ser112 residues by TR-FRET assay
[4] = test system: Liver; assay: Stability in mouse liver microsomes; format: ADME, microsome
[5] = target: T2, Cytochrome P450 3A4 (Homo sapiens, UniProt P08684); assay: Inhibition of CYP3A4 (unknown origin) using testosterone as substrate; format: ADME
[6] = test system: Liver; assay: Stability in human liver microsomes; format: ADME, microsome
[7] = test system: Liver; assay: Stability in rat liver microsomes; format: ADME, microsome
[8] = target: T2, Cytochrome P450 3A4; assay: Inhibition of CYP3A4 (unknown origin) using midazolam as substrate; format: ADME
[9] = target: Voltage-gated inwardly rectifying potassium channel KCNH2 (Homo sapiens, UniProt Q12809); assay: Inhibition of human ERG by patch clamp assay
[10] = Permeability from apical to basolateral side in human Caco2/TC7 cells at 5 uM; format: ADME, cell-based; details: Caco-2, read-out: permeability
[11] = test system: KG-1; assay: Antiproliferative activity against human KG1 cells; format: functional, cell-based
[12] = Cmax in rat at 10 mg/kg, po administered as single dose; format: ADME, organism-based; design: dose 10 mg/kg, route oral; details: in vivo
[13] = Protein binding in mouse plasma; format: ADME, cell-free; details: read-out: PPB
[14] = AUC (0 to infinity) in rat at 3 mg/kg, iv administered as single dose; format: ADME, organism-based; design: dose 3 mg/kg, route intravenous, time infinity; details: in vivo
[15] = target: T1, Serine/threonine-protein kinase pim-1; assay: Inhibition of PIM1 in human KG1 cells assessed as reduction in BAD phosphorylation; format: cell-based
[16] = Thermodynamic solubility of the compound at pH 7.4; format: physicochemical; details: buffer, read-out: Therm_solubility
[17] = Plasma concentration in SCID mouse xenografted with human KG1 cells at 25 mg/kg, po administered as single dose measured at 8 hrs; format: ADME, organism-based
[18] = test system: Mus musculus; assay: In vivo inhibition of PIM1 in SCID mouse xenografted with human KG1 cells assessed as reduction in BAD phosphorylation at 25 mg/kg, po administered as single dose measured at 8 hrs relative to control; format: functional; details: KG-1, po
[19] = Clearance in rat at 3 mg/kg, iv administered as single dose; format: ADME, organism-based; details: in vivo
[20] = AUC (0 to infinity) in rat at 10 mg/kg, po administered as single dose; format: ADME, organism-based; design: dose 10 mg/kg, time infinity, route oral; details: in vivo
[21] = Drug uptake in tumor of SCID mouse xenografted with human KG1 cells at 25 mg/kg, po administered as single dose measured at 24 hrs; format: ADME, organism-based, Neoplasm; details: read-out: Drug uptake
[22] = Drug uptake in tumor of SCID mouse xenografted with human KG1 cells at 25 mg/kg, po administered as single dose measured at 8 hrs; format: ADME, organism-based, Neoplasm; details: read-out: Drug uptake
[23] = Protein binding in human plasma; format: ADME, cell-free; details: read-out: PPB
[24] = Plasma concentration in SCID mouse xenografted with human KG1 cells at 25 mg/kg, po administered as single dose measured at 24 hrs; format: ADME, organism-based
[25] = Protein binding in rat plasma; format: ADME, cell-free; details: read-out: PPB
[26] = Volume of distribution at steady state in rat at 3 mg/kg, iv administered as single dose; format: ADME, organism-based; details: in vivo, read-out: Vdss
[27] = test system: Mus musculus; assay: In vivo inhibition of PIM1 in SCID mouse xenografted with human KG1 cells assessed as reduction in BAD phosphorylation at 25 mg/kg, po administered as single dose measured at 24 hrs relative to control; format: functional; details: KG-1, po
[28] = Half life in rat at 3 mg/kg, iv administered as single dose; format: ADME, organism-based; details: in vivo

With `NC(=O)c1cc(Cl)c2c(Cl)c(C3=CCOCC3)n(C3CCCNC3)c2n1` (stereo not drawn) the IC50 [1] was 103 nM and the IC50 [2] was 179 nM.

For `Cn1c(I)c(Cl)c2c(Cl)cc(C(N)=O)nc21`, the IC50 [1] was 31 nM, the IC50 [3] was 69 nM and the IC50 [2] was 640 nM.

`NC(=O)c1cc(Cl)c2c(Cl)c(I)n(Cc3ccncc3)c2n1` showed an IC50 [1] of 720 nM and an IC50 [3] of 5620 nM.

`NC(=O)c1cc(Cl)c2c(Cl)c(I)n(C3CCC(N)CC3)c2n1` (stereo not drawn) showed an IC50 [1] of 1 nM, an IC50 [3] of 3 nM and an IC50 [2] of 6 nM.

`CCN(CC)CCn1c(I)c(Cl)c2c(Cl)cc(C(N)=O)nc21` gave an IC50 [1] of 125 nM, an IC50 [3] of 480 nM and an IC50 [2] of 7410 nM.

For `Cn1cc(-c2c(Cl)c3c(Cl)cc(C(N)=O)nc3n2C2CCCNC2)cn1` (stereo not drawn), the IC50 [1] was 1 nM and the IC50 [2] was 16 nM.

For `NC(=O)c1cc(Cl)c2c(Cl)c(I)n(C3CNC3)c2n1`, the IC50 [1] was 250 nM, the IC50 [3] was 350 nM and the IC50 [2] was 4220 nM.

Work on `COC/C=C/c1c(Cl)c2c(Cl)cc(C(N)=O)nc2n1C1CCCNC1` (stereo not drawn) yielded an IC50 [1] of 8 nM and an IC50 [2] of 57 nM.

`Cc1c(-c2ccc(N3CCN(C)CC3)cc2)n(C)c2nc(C(N)=O)cc(Cl)c12` showed an IC50 [1] of 37 nM and an IC50 [2] of 1950 nM.

`NC(=O)c1cc(Cl)c2c(Cl)c(C3CCCO3)n(C3CCCNC3)c2n1` (stereo not drawn) gave an IC50 [1] of 31 nM and an IC50 [2] of 135 nM.

In the case of `NC(=O)c1cc(Cl)c2c(Cl)c(C(F)(F)F)n(C3CCCNC3)c2n1` (stereo not drawn), the IC50 [1] is reported as 67 nM and the IC50 [2] is reported as 25 nM.

`CN1CCC(n2c(I)c(Cl)c3c(Cl)cc(C(N)=O)nc32)CC1` showed an IC50 [1] of 2 nM, an IC50 [3] of 6 nM and an IC50 [2] of 34 nM.

`NC(=O)c1cc(Cl)c2c(Cl)c(C3CC3)n([C@@H]3CCCNC3)c2n1` gave a Stability [4] of 11%, an IC50 [5] of over 30000 nM and an IC50 [1] of 4 nM. It also gave a Stability [6] of 3%, a Stability [7] of 8% and an IC50 [8] of over 30000 nM. It also gave an IC50 [9] of 1500 nM, an IC50 [2] of 22 nM and a Papp A→B at 5 µM [10] of 3.6 ×10⁻⁶ cm/s. The IC50 [11] was 822 nM.

In the case of `NC(=O)c1cc(Cl)c2c(Cl)c(-c3ccccc3)n(C3CCCNC3)c2n1` (stereo not drawn), the IC50 [1] is reported as 13 nM and the IC50 [2] is reported as 109 nM.

`CN1CCN(c2ccc(-c3cc4c(Cl)cc(C(N)=O)nc4n3C)cc2)CC1` showed an IC50 [1] of 250 nM and an IC50 [2] of over 30000 nM.

Compound `NC(=O)c1cc(Cl)c2c(Cl)c(C3CC3)n([C@H]3CCCNC3)c2n1` has a Cmax [12] of 390 ng/mL, a Stability [4] of 10% and an IC50 [5] of 21000 nM. It also gave a fraction unbound [13] of 0.01, an AUC(0-inf) [14] of 2620 ng·h/mL and an IC50 [15] of 43 nM. It also gave a solubility thermodynamic [16] of 225 µM (≈ 79.5 µg/mL), an IC50 [1] of 1 nM and a concentration at 8 h [17] of 18.9 µM. For the same compound, the Stability [6] was 1%, the inhibition in vivo at 25 mg/kg [18] was 60 to 65% and the Stability [7] was 6%. For the same compound, the clearance [19] was 18.3 mL/min/kg, the AUC(0-inf) [20] was 7450 ng·h/mL and the concentration at 24 h [21] was 99 µM. For the same compound, the concentration at 8 h [22] was 101 µM, the IC50 [8] was over 30000 nM and the IC50 [9] was 2900 nM. For the same compound, the fraction unbound [23] was 0.01, the concentration at 24 h [24] was 8.21 µM and the fraction unbound [25] was 0.01. The IC50 [2] was 6 nM, the Vd [26] was 20.9 L/kg and the inhibition in vivo at 25 mg/kg [27] was 61%. It also gave a Papp A→B at 5 µM [10] of 3.8 ×10⁻⁶ cm/s, a half-life [28] of 13.6 h and an IC50 [11] of 62 nM.

`NC(=O)c1cc(Cl)c2c(Cl)c(I)n(CCC3CCNCC3)c2n1` showed an IC50 [1] of 3 nM, an IC50 [3] of 17 nM and an IC50 [2] of 148 nM.
